{
  "source": "paper PMC7031696",
  "about": "(Cell chemical biology, 2019)",
  "test_system": "3D7-MR4 trophozoite parasite-infected RBCs",
  "assay": "Metabolomic profiling (hydrophilic metabolite changes, UHPLC-MS)",
  "format": "cell-based, Plasmodium falciparum",
  "data": [
    {"smiles": "CC(C)(C)NCc1cc(Nc2ccnc3cc(Cl)ccc23)c2c(c1O)CCCC2", "note": "[Naphtoquine, Naphthoquine, reference compound]", "values": [
      {"measurement": "changes within the set of metabolites detected (low fold change group)", "setting": "10 × IC50^72h, 2.5 hr, trophozoites", "value": "did not induce major changes"},
      {"measurement": "Log2(fold changes) 1_3-Bisphosphoglyceric acid", "setting": "metabolite 1_3-Bisphosphoglyceric acid, log2 fold change", "value": 0.0605},
      {"measurement": "Log2(fold changes) 2-Hydroxy-2-methylbutanedioic acid", "setting": "metabolite 2-Hydroxy-2-methylbutanedioic acid, log2 fold change", "value": 0.0920},
      {"measurement": "Log2(fold changes) 2-Isopropylmalic acid", "setting": "metabolite 2-Isopropylmalic acid, log2 fold change", "value": 0.0000},
      {"measurement": "Log2(fold changes) 2-dehydro-D-gluconate", "setting": "metabolite 2-dehydro-D-gluconate, log2 fold change", "value": -0.0605},
      {"measurement": "Log2(fold changes) 2-oxo-4-methylthiobutanoate", "setting": "metabolite 2-oxo-4-methylthiobutanoate, log2 fold change", "value": 0.0000},
      {"measurement": "Log2(fold changes) 2_3-Diphosphoglyceric acid", "setting": "metabolite 2_3-Diphosphoglyceric acid, log2 fold change", "value": 0.0000},
      {"measurement": "Log2(fold changes) 3-phosphoglycerate", "setting": "metabolite 3-phosphoglycerate, log2 fold change", "value": 0.2077},
      {"measurement": "Log2(fold changes) 3-phosphoserine", "setting": "metabolite 3-phosphoserine, log2 fold change", "value": -0.0700},
      {"measurement": "Log2(fold changes) 4-Pyridoxic acid", "setting": "metabolite 4-Pyridoxic acid, log2 fold change", "value": 0.2073},
      {"measurement": "Log2(fold changes) 4-aminobutyrate", "setting": "metabolite 4-aminobutyrate, log2 fold change", "value": 0.0263},
      {"measurement": "Log2(fold changes) 4-phosphopantetheine", "setting": "metabolite 4-phosphopantetheine, log2 fold change", "value": 0.0000},
      {"measurement": "Log2(fold changes) 4-phosphopantothenate", "setting": "metabolite 4-phosphopantothenate, log2 fold change", "value": -0.0475},
      {"measurement": "Log2(fold changes) 5-aminopentanoic acid", "setting": "metabolite 5-aminopentanoic acid, log2 fold change", "value": 0.0000},
      {"measurement": "Log2(fold changes) 5-methyl-THF", "setting": "metabolite 5-methyl-THF, log2 fold change", "value": 0.0000},
      {"measurement": "Log2(fold changes) 5-phosphoribosyl-1-pyrophosphate", "setting": "metabolite 5-phosphoribosyl-1-pyrophosphate, log2 fold change", "value": 0.0000},
      {"measurement": "Log2(fold changes) 6-phospho-D-gluconate", "setting": "metabolite 6-phospho-D-gluconate, log2 fold change", "value": 0.1085},
      {"measurement": "Log2(fold changes) ADP-D-glucose", "setting": "metabolite ADP-D-glucose, log2 fold change", "value": 0.0398},
      {"measurement": "Log2(fold changes) Acetyl-glycine", "setting": "metabolite Acetyl-glycine, log2 fold change", "value": 0.0000},
      {"measurement": "Log2(fold changes) Acetyllysine", "setting": "metabolite Acetyllysine, log2 fold change", "value": -0.1423},
      {"measurement": "Log2(fold changes) Aminoadipic acid", "setting": "metabolite Aminoadipic acid, log2 fold change", "value": 0.0000},
      {"measurement": "Log2(fold changes) CDP", "setting": "metabolite CDP, log2 fold change", "value": -0.5923},
      {"measurement": "Log2(fold changes) CDP-choline", "setting": "metabolite CDP-choline, log2 fold change", "value": -0.0652},
      {"measurement": "Log2(fold changes) CDP-ethanolamine", "setting": "metabolite CDP-ethanolamine, log2 fold change", "value": -0.0101},
      {"measurement": "Log2(fold change) of CMP", "setting": "metabolite CMP", "value": -0.1194},
      {"measurement": "Log2(fold change) of CTP", "setting": "metabolite CTP", "value": 0.1369},
      {"measurement": "Log2(fold changes) Citraconic acid", "setting": "metabolite Citraconic acid, log2 fold change", "value": 0.0000},
      {"measurement": "Log2(fold change) of D-glucarate", "setting": "metabolite D-glucarate", "value": 0.1211},
      {"measurement": "Log2(fold change) of D-gluconate", "setting": "metabolite D-gluconate", "value": 0.1168},
      {"measurement": "Log2(fold change) of D-glucosamine-1/6-phosphate", "setting": "metabolite D-glucosamine-1/6-phosphate", "value": 0.0000},
      {"measurement": "Log2(fold change) of D-sedoheptulose-1/7-phosphate", "setting": "metabolite D-sedoheptulose-1/7-phosphate", "value": -0.1410},
      {"measurement": "Log2(fold change) of DL-Pipecolic Acid", "setting": "metabolite DL-Pipecolic Acid", "value": 0.1435},
      {"measurement": "Log2(fold change) of DLH", "setting": "metabolite DLH", "value": 0.3114},
      {"measurement": "Log2(fold change) of DLS", "setting": "metabolite DLS", "value": 0.0979},
      {"measurement": "Log2(fold change) of Decanoyl-CoA", "setting": "metabolite Decanoyl-CoA", "value": 0.0000},
      {"measurement": "Log2(fold change) of EV", "setting": "metabolite EV", "value": -0.1292},
      {"measurement": "Log2(fold change) of FAD", "setting": "metabolite FAD", "value": 0.0352},
      {"measurement": "Log2(fold change) of FMN", "setting": "metabolite FMN", "value": 0.1758},
      {"measurement": "Log2(fold change) of G3P/DHAP", "setting": "metabolite G3P/DHAP", "value": 0.0000},
      {"measurement": "Log2(fold change) of GDP", "setting": "metabolite GDP", "value": -0.5345},
      {"measurement": "Log2(fold change) GMP", "setting": "metabolite GMP", "value": 0.0470},
      {"measurement": "Log2(fold change) GTP", "setting": "metabolite GTP", "value": 0.0942},
      {"measurement": "Log2(fold change) HVDD", "setting": "metabolite HVDD", "value": 0.0000},
      {"measurement": "Log2(fold change) Hexose", "setting": "metabolite Hexose", "value": 0.0000},
      {"measurement": "Log2(fold change) Hydroxyisocaproic acid", "setting": "metabolite Hydroxyisocaproic acid", "value": 0.0000},
      {"measurement": "Log2(fold change) IDP", "setting": "metabolite IDP", "value": 0.0737},
      {"measurement": "Log2(fold change) IMP", "setting": "metabolite IMP", "value": -0.0394},
      {"measurement": "Log2(fold change) Inositol", "setting": "metabolite Inositol", "value": 0.0000},
      {"measurement": "Log2(fold change) Isopentyl-PP", "setting": "metabolite Isopentyl-PP", "value": 0.0000},
      {"measurement": "Log2(fold change) L-arginino-succinate", "setting": "metabolite L-arginino-succinate", "value": -0.0233},
      {"measurement": "Log2(fold change) LD", "setting": "metabolite LD", "value": 0.1467},
      {"measurement": "Log2(fold change) Myristoyl/tetradecanoyl-CoA", "setting": "metabolite Myristoyl/tetradecanoyl-CoA", "value": 0.0252},
      {"measurement": "Log2(fold change) N-Acetyl-L-alanine", "setting": "metabolite N-Acetyl-L-alanine", "value": 0.1261},
      {"measurement": "Log2(fold change) N-acetyl-L-ornithine", "setting": "metabolite N-acetyl-L-ornithine", "value": -0.0214},
      {"measurement": "Log2(fold change) N-acetyl-glucosamine-1/6-phosphate", "setting": "metabolite N-acetyl-glucosamine-1/6-phosphate", "value": 0.0000},
      {"measurement": "Log2(fold change) N-acetyl-glutamate", "setting": "metabolite N-acetyl-glutamate", "value": 0.0412},
      {"measurement": "Log2(fold change) N-acetyl-glutamine", "setting": "metabolite N-acetyl-glutamine", "value": 0.0000},
      {"measurement": "Log2(fold change) N-carbamoyl-L-aspartate", "setting": "metabolite N-carbamoyl-L-aspartate", "value": 0.0625},
      {"measurement": "Log2(fold change) NAD+", "setting": "metabolite NAD+", "value": -0.0154},
      {"measurement": "Log2(fold change) NADH", "setting": "metabolite NADH", "value": 0.0000},
      {"measurement": "Log2(fold change) NADP+", "setting": "metabolite NADP+", "value": 0.0692},
      {"measurement": "Log2(fold change) NADPH", "setting": "metabolite NADPH", "value": -0.1981},
      {"measurement": "Log2(fold change) O-acetyl-L-serine", "setting": "metabolite O-acetyl-L-serine", "value": 0.0000},
      {"measurement": "Log2(fold change) Octoluse 8/1P", "setting": "metabolite Octoluse 8/1P", "value": -0.0241},
      {"measurement": "Log2(fold change) Octoluse Bisphosphate", "setting": "metabolite Octoluse Bisphosphate", "value": 0.0717},
      {"measurement": "Log2(fold change) PD", "setting": "metabolite PD", "value": 0.0223},
      {"measurement": "Log2(fold change) PE", "setting": "metabolite PE", "value": 0.1349},
      {"measurement": "Log2(fold change) PEE", "setting": "metabolite PEE", "value": 0.2438},
      {"measurement": "Log2(fold change) PEEK", "setting": "metabolite PEEK", "value": 0.3424},
      {"measurement": "Log2(fold change) PVNF", "setting": "metabolite PVNF", "value": 0.2854},
      {"measurement": "Log2(fold change) Pyroglutamic acid", "setting": "metabolite Pyroglutamic acid", "value": -0.2488},
      {"measurement": "Log2(fold change) Pyrophosphate", "setting": "metabolite Pyrophosphate", "value": 0.0000},
      {"measurement": "Log2(fold change) Ribose-5-phosphate", "setting": "metabolite Ribose-5-phosphate", "value": 0.1278},
      {"measurement": "Log2(fold change) S-adenosyl-L-homocysteine", "setting": "metabolite S-adenosyl-L-homocysteine", "value": -0.2617},
      {"measurement": "Log2(fold change) S-adenosyl-L-methioninamine", "setting": "metabolite S-adenosyl-L-methioninamine", "value": 0.0000},
      {"measurement": "Log2(fold change) S-adenosyl-L-methionine", "setting": "metabolite S-adenosyl-L-methionine", "value": 0.0000},
      {"measurement": "Log2(fold change) S-methyl-5'-thioadenosine", "setting": "metabolite S-methyl-5'-thioadenosine", "value": 0.0070},
      {"measurement": "Log2(fold change) SD", "setting": "metabolite SD", "value": 0.1296},
      {"measurement": "Log2(fold change) SDL", "setting": "metabolite SDL", "value": 0.0391},
      {"measurement": "Log2(fold change) SID", "setting": "metabolite SID", "value": 0.2783},
      {"measurement": "Log2(fold change) Sedoheptulose bisphosphate", "setting": "metabolite Sedoheptulose bisphosphate", "value": 0.1433},
      {"measurement": "Log2(fold change) Thiamine pyrophosphate", "setting": "metabolite Thiamine pyrophosphate", "value": 0.0526},
      {"measurement": "Log2(fold changes) UDP-D-glucose", "setting": "metabolite UDP-D-glucose, log2 fold change", "value": 0.0961},
      {"measurement": "Log2(fold changes) UDP-D-glucuronate", "setting": "metabolite UDP-D-glucuronate, log2 fold change", "value": 0.1278},
      {"measurement": "Log2(fold changes) UDP-N-acetyl-glucosamine", "setting": "metabolite UDP-N-acetyl-glucosamine, log2 fold change", "value": 0.0189},
      {"measurement": "Log2(fold changes) UDP", "setting": "metabolite UDP, log2 fold change", "value": -0.6136},
      {"measurement": "Log2(fold changes) UMP", "setting": "metabolite UMP, log2 fold change", "value": -0.1186},
      {"measurement": "Log2(fold changes) UTP", "setting": "metabolite UTP, log2 fold change", "value": 0.1051},
      {"measurement": "Log2(fold changes) VD", "setting": "metabolite VD, log2 fold change", "value": 0.0754},
      {"measurement": "Log2(fold changes) Xanthurenic acid", "setting": "metabolite Xanthurenic acid, log2 fold change", "value": 0.0000},
      {"measurement": "Log2(fold changes) a-ketoglutarate", "setting": "metabolite a-ketoglutarate, log2 fold change", "value": 0.1610},
      {"measurement": "Log2(fold changes) acetyl-CoA", "setting": "metabolite acetyl-CoA, log2 fold change", "value": 0.1670},
      {"measurement": "Log2(fold changes) acetyl-aspartate", "setting": "metabolite acetyl-aspartate, log2 fold change", "value": 0.0000},
      {"measurement": "Log2(fold changes) acetylphosphate", "setting": "metabolite acetylphosphate, log2 fold change", "value": 0.0000},
      {"measurement": "Log2(fold changes) aconitate", "setting": "metabolite aconitate, log2 fold change", "value": 0.1208},
      {"measurement": "Log2(fold changes) adenine", "setting": "metabolite adenine, log2 fold change", "value": 0.0000},
      {"measurement": "Log2(fold changes) adenosine 5'-phosphosulfate", "setting": "metabolite adenosine 5'-phosphosulfate, log2 fold change", "value": 0.0000}
    ]}
  ]
}
